Patent US6451807B1, “Methods of treating sexual dysfunction in an individual suffering from a retinal disease, class 1 congestive heart failure, or myocardial infarction using a PDE5 inhibitor” (Lilly Icos, LLC., priority 1999, dated 2002)

Experiments:
human PDE5 = molecular target: T1, human PDE5 (Homo sapiens, UniProt O76074); test: PDE5 enzyme inhibition, IC50 determination; format: biochemical
T1 construct: made in house; host or cells: Saccharomyces cerevisiae protease-deficient strain BJ2-54 (ATCC 74465)

Bovine PDE6 = molecular target: T2, Bovine PDE6 (Bos taurus, UniProt P11541+P23439); test: PDE6 enzyme inhibition, IC50 determination; format: biochemical; settings: for PDE6/PDE5: ratio of IC50 versus PDE6 to IC50 versus PDE5
T2 construct: Hypotonic extracts were prepared by suspending isolated ROS; tissue Dr. N. Virmaux, INSERM U338, Strasbourg; host or cells: bovine retina, rod outer segment hypotonic extract
T2 sequence (P11541 2-856 limits assumed): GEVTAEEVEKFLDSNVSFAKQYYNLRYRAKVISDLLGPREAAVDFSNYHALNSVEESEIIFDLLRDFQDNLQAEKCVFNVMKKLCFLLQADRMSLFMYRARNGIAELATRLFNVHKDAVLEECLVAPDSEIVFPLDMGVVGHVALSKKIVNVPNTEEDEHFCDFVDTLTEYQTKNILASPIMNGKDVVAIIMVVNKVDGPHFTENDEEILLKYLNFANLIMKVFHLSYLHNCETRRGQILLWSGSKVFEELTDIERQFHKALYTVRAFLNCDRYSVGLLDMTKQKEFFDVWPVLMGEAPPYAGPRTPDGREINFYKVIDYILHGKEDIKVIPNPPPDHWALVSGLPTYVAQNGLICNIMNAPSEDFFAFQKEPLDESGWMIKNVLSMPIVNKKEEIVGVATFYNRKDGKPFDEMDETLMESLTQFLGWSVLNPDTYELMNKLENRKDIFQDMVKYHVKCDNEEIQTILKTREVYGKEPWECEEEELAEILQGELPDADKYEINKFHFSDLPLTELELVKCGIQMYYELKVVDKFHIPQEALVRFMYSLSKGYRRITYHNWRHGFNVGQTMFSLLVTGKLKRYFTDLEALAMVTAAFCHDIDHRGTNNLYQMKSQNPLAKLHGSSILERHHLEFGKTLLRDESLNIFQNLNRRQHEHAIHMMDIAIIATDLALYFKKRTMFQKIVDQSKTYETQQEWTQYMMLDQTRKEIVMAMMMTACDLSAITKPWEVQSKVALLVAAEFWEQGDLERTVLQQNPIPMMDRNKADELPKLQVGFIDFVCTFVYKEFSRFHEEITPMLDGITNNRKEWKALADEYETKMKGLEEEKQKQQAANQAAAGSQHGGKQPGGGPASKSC
T2 sequence (P23439 2-850 limits assumed): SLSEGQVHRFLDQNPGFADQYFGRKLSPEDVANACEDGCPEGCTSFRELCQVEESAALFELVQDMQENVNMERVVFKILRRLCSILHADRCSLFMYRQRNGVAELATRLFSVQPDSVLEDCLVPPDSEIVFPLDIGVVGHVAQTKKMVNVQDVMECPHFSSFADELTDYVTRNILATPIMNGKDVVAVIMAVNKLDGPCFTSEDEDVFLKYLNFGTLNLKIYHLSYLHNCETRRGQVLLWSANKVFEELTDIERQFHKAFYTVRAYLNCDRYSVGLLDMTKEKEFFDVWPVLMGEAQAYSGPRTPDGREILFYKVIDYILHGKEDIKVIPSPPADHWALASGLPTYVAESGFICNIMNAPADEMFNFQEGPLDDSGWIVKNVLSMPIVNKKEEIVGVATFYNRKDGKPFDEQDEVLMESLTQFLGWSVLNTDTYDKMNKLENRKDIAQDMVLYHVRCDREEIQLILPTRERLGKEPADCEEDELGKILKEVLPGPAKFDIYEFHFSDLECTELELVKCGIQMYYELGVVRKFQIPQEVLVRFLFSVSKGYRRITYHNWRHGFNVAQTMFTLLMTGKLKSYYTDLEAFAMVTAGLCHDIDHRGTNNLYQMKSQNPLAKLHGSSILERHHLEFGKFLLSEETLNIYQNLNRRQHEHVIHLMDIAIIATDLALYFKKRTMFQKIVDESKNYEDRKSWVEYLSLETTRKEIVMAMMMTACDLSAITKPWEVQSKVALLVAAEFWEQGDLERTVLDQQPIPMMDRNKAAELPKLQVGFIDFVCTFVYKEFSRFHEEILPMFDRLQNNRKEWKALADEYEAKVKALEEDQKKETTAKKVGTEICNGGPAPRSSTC
T2 sequence (P04972 1-87 partner): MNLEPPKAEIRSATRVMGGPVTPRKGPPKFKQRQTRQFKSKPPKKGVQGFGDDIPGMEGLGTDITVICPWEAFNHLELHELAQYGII
Protocol: Bovine PDE6 was supplied by Dr. N. Virmaux, INSERM U338, Strasbourg. Bovine retinas were prepared as described by Virmaux et al., FEBS Letters, 12(6), pp. 325-328 (1971) and see also, A. Sitaramayya et al., Exp. Eye Res., 25, pp. 163-169 (1977). Briefly, unless stated otherwise, all operations were done in the cold and in dim red light. Eyes were kept in the cold and in the dark for up to four hours after slaughtering.
Preparation of bovine retinal outer segment (ROS) basically followed procedures described by Schichi et al., J. Biol. Chem., 224:529 (1969). In a typical experiment, 35 bovine retinas were ground in a mortar with 35 mL 0.066 M phosphate buffer, pH 7.0, made up to 40% with sucrose, followed by homogenization in a Potter homogenizer (20 up and down strokes). The suspension was centrifuged at 25,000×g for 20 minutes. The pellet was homogenized in 7.5 mL 0.006 M phosphate buffer (40% in sucrose), and carefully layered under 7.5 mL of phosphate buffer (containing no sucrose). Centrifugation was conducted in a swing-out rotor at 45,000×g for 20 minutes, and produced a pellet which is black at the bottom, and also a red band at the interface 0.066 M. phosphate—40% sucrose/0.066 M phosphate (crude ROS). The red material at the interface was removed, diluted with phosphate buffer, spun down to a pellet, and redistributed in buffered 40% sucrose as described above. This procedure was repeated 2 or 3 times until no pellet was formed. The purified ROS was washed in phosphate buffer and finally spun down to a pellet at 25,000×g for 20 minutes. All materials were then kept frozen until used.
Hypotonic extracts were prepared by suspending isolated ROS in 10 mM Tris-Cl pH 7.5, 1 mM EDTA, and 1 mM dithioerythritol, followed by centrifugation at 100,000×g for 30 minutes.
The preparation was reported to have a specific activity of about 35 nmoles cGMP hydrolyzed per minute per milligram protein.
Biophys. Acta, 384:430 (1975).

PDE1 = settings: package insert; cited from earlier work
PDE3 = settings: package insert; cited from earlier work
[1] = tested on: patients taking organic nitrates; settings: in combination with organic nitrates; cited from earlier work
PDE4 = settings: package insert; cited from earlier work
PDE2 = PDE2 (Homo sapiens, UniProt O00408); settings: package insert; cited from earlier work
Sequence of PDE2 (O00408 whole entry): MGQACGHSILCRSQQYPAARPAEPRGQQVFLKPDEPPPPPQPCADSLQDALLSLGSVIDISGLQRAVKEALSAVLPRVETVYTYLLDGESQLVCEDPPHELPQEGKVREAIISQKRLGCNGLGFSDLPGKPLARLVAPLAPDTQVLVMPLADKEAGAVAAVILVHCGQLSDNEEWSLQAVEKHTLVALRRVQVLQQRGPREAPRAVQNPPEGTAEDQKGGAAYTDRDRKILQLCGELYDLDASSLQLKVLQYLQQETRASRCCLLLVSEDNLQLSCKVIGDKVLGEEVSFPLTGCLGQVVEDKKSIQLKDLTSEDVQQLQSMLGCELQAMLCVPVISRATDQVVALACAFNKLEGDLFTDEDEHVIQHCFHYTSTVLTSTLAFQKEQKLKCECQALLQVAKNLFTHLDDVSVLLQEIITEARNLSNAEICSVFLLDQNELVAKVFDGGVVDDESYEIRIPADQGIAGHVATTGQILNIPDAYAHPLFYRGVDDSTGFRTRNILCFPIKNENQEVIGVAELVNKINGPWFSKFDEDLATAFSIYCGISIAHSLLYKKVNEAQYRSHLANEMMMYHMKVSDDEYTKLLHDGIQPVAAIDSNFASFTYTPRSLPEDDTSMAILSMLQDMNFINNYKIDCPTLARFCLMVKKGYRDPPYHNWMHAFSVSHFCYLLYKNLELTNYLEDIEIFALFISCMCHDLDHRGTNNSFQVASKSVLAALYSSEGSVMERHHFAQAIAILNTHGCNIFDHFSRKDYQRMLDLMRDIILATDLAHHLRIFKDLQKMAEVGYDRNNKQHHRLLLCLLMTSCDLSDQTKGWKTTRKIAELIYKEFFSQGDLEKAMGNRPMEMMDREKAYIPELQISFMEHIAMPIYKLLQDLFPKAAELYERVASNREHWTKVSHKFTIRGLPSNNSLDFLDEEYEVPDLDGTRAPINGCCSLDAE

O=C1C2Cc3c([nH]c4ccccc34)C(c3ccc4c(c3)OCO4)N2C(=O)CN1Cc1ccc(NS(=O)(=O)C(F)(F)F)cc1 (centres unmarked) [Compound 1]
IC50 (human PDE5): 5 nM
IC50 (Bovine PDE6): 663 nM
PDE6/PDE5 (Bovine PDE6): 133

O=C1C2Cc3c([nH]c4ccccc34)C(c3ccc4c(c3)OCO4)N2C(=O)CN1Cc1cccc(NS(=O)(=O)C(F)(F)F)c1 (centres unmarked) [Compound 3]
IC50 (human PDE5): 2 nM
IC50 (Bovine PDE6): 420 nM
PDE6/PDE5 (Bovine PDE6): 210

CC1NC(=O)C2Cc3c([nH]c4ccccc34)C(c3ccc4c(c3)OCO4)N2C1=O (centres unmarked) [Compound 4]
IC50 (human PDE5): 5 nM
IC50 (Bovine PDE6): 729 nM
PDE6/PDE5 (Bovine PDE6): 146

CCCc1nn(C)c2c(=O)[nH]c(-c3cc(S(=O)(=O)N4CCN(C)CC4)ccc3OCC)nc12 [sildenafil]
more potent inhibitor of PDE5 than PDE1 (PDE1): greater than 80 fold
more potent inhibitor of PDE5 than PDE3 (PDE3): greater than 1,000 fold
effect on hypotensive effects of nitrates [1]: potentiates the hypotensive effects of nitrates
more potent inhibitor of PDE5 than PDE4 (PDE4): greater than 1,000 fold
more potent inhibitor of PDE5 than PDE2 (PDE2): greater than 1,000 fold
